pIC50: −log10 of the molar value. Counter-ions that a name gives are not always drawn. Each block holds one compound with its values, some of them ahead of it.
Key:
[1] = target: Apo(a) and ApoB protein assembly (Homo sapiens (Human), UniProt P08519); assay: Test for activity of compounds in inhibiting Lp(a) assembly (double antibody ELISA); format: biochemical; conditions: plasma from human transgenic hApo(a) and hApoB mice; 37° C., 2 h; ELISA absorbance at 450 nm
Method: The disclosure used a double antibody ELISA method to measure the efficiency of Apo(a) and ApoB protein assembly. The antibodies were ApoB-Capture antibody (Mabtech) and Apo(a)-Detector antibody (Abcam); the test samples were plasma from human transgenic hApo(a) and hApoB mice and were diluted 500-fold before use.
Experimental steps: Equal amounts of Apo(a) and ApoB serum were mixed with a serially diluted test compound (highest concentration at 100 nM, serially diluted 3-fold). The mixture was incubated in a 37° C. incubator for 2 h. The reaction was then terminated by adding 6-aminocaproic acid (EACA, purchased from Sigma) to a final concentration of 150 mM. The post-reaction solution was then added to an ELISA plate pre-coated with ApoB-Capture antibody, and the plate was incubated at room temperature for 2 h. Then the plate was washed 4 times with wash buffer; biotinylated Apo(a)-Detector antibody was added, and the plate was incubated at room temperature for 1 h. The plate was washed, and the chromogenic substrate 3,3′,5,5′-tetramethylbenzidine (TMB, purchased from Abcam) solution was added. After the plate was incubated at room temperature for 15 min, a reaction stop solution was added. Immediately after the solution was mixed well, the absorbance at 450 nm was measured using a microplate reader. Finally, data analysis and IC50 calculation were performed using GraphPad Prism 9 software.
The 0% inhibition rate for Apo(a) and ApoB protein assembly corresponds to the OD value where the compound concentration was 0 (1% DMSO); the 100% inhibition rate for Apo(a) and ApoB protein assembly corresponds to the OD value where only ApoB protein solution (a dilution of plasma from hApoB mice) was added.

[2] = In vivo pharmacokinetic experiment on beagles; conditions: intragastric, 10 mg/kg
Method: (§1) Beagles were used as test animals. After intragastric administration of the compound of the disclosure to beagles, plasma concentrations at different time points were determined by LC/MS/MS. The pharmacokinetic behavior of the compound of the disclosure in beagles was studied and its pharmacokinetic profile was evaluated.
Test Animals: 2 Healthy Male Beagles Aged 8-36 Months Per Group
Compound solution preparation: A certain amount of compound was weighed out and normal saline was added to form a 2 mg/mL colorless clear solution.
Administration: Beagles were fasted overnight and then intragastrically dosed. Reference 1 and compound 6 were both administered at a dose of 10 mg/kg.
(§2) Procedure: Beagles were intragastrically administered the compound of the disclosure. Blood samples of about 0.6 mL were collected from the peripheral vein at 0.25, 0.5, 1, 2, 4, 6, 8, and 24 h post-dose and placed into test tubes containing EDTA-K2. The blood samples were centrifuged at about 4° C. at 2000 rpm for 10 min to separate plasma, and the plasma was stored at −75° C.
(§3) Determination of the content of the test compound in beagle plasma at these different blood collection time points: Samples of 33 μL (30 μL of plasma and 3 μL of blank) of the beagle plasma collected at these time points post-dose were taken and added to 18 μL of a 6% perchloric acid solution. After 30 s of vortexing, the mixture was centrifuged at a temperature of 4° C. at 3900 rpm for 15 min, and 200 μL of alkalinized (the pH was adjusted to 10-11 with ammonia water) acetonitrile solution containing dexamethasone as an internal standard was then added to precipitate protein. After 30 s of vortexing, the mixture was centrifuged at 4° C. at 3900 rpm for 15 min. The supernatants of the plasma samples were taken and 3-fold diluted with water, and 8 μL of dilution was taken for LC/MS/MS analysis.
(§4) After plasma concentrations were determined by LC/MS/MS analysis, pharmacokinetic parameters were calculated using WinNonlin 6.1 software and a non-compartmental model method.

[3] = In vivo pharmacokinetic experiment on cynomolgus monkeys; conditions: intragastric; for AUC / half-life / Cmax: both sexes, cynomolgus monkey, plasma, po; for AUC: read-out: Area under curve AUC; for half-life: read-out: Half-life T1/2 (converted); for Cmax: read-out: Maximum plasma concentration Cmax
Method: as §1, with “Cynomolgus monkeys” for “Beagles”, “cynomolgus monkeys,” for “beagles,”, “cynomolgus monkeys” for “beagles”
Test Animals: 2 Healthy Cynomolgus Monkeys Aged 24-36 Months Per Group (One Male and One Female)
Compound solution preparation: Certain amounts of compound were weighed out and normal saline was added to form 10 mg/mL (reference 1) and 3 mg/mL (compound 6) colorless clear solutions.
Administration: Cynomolgus monkeys were fasted overnight and then intragastrically dosed. Reference 1 was administered at a dose of 50 mg/kg, and compound 6 was administered at a dose of 15 mg/kg.
as §2, with “Cynomolgus monkeys” for “Beagles”, “0.5” for “0.6”
as §3, with “cynomolgus monkey” for “beagle”
as §4

[4] = High-dose single-dose tolerance experiment on mice; format: in vivo, C57/6J mice; conditions: for body weight trend of the mice: 7 d after high-dose (1000 mg/kg) administration, conclusion in words; for Mouse body weight, Day 0 / Mouse body weight, Day 3 / Mouse body weight, Day 5 / Mouse body weight, Day 7: male C57/6J mice, single oral gavage 1000 mg/kg, mean
Method: C57/6J mice were used as test animals and administered a high dose of the compound of the disclosure by oral gavage. Clinical observations were carried out on the mice, and the safety of the compound of the disclosure was evaluated.
Experimental method: 8 male C57/6J mice were numbered 1-8 and weighed. The mice were fasted for 4 h before the experiment and weighed after the fast (0 h). Six mice with body weights closer to the average were selected and divided into 2 groups of 3.
The first group (G1) was administered reference 1, and the second group (G2) was administered the compound of the disclosure, Example 6. In both groups G1 and G2, the compounds were administrated by oral gavage at a dose of 1000 mg/kg, with normal saline as a vehicle. Clinical observations were carried out on the mice in the experimental group at 15 min, 30 min, 1 h, 2 h, 4 h, 6 h, and 24 h post-dose, and both groups were given food at 2 h post-dose.

Sequence of Apo(a) and ApoB protein assembly (P08519 20-2040): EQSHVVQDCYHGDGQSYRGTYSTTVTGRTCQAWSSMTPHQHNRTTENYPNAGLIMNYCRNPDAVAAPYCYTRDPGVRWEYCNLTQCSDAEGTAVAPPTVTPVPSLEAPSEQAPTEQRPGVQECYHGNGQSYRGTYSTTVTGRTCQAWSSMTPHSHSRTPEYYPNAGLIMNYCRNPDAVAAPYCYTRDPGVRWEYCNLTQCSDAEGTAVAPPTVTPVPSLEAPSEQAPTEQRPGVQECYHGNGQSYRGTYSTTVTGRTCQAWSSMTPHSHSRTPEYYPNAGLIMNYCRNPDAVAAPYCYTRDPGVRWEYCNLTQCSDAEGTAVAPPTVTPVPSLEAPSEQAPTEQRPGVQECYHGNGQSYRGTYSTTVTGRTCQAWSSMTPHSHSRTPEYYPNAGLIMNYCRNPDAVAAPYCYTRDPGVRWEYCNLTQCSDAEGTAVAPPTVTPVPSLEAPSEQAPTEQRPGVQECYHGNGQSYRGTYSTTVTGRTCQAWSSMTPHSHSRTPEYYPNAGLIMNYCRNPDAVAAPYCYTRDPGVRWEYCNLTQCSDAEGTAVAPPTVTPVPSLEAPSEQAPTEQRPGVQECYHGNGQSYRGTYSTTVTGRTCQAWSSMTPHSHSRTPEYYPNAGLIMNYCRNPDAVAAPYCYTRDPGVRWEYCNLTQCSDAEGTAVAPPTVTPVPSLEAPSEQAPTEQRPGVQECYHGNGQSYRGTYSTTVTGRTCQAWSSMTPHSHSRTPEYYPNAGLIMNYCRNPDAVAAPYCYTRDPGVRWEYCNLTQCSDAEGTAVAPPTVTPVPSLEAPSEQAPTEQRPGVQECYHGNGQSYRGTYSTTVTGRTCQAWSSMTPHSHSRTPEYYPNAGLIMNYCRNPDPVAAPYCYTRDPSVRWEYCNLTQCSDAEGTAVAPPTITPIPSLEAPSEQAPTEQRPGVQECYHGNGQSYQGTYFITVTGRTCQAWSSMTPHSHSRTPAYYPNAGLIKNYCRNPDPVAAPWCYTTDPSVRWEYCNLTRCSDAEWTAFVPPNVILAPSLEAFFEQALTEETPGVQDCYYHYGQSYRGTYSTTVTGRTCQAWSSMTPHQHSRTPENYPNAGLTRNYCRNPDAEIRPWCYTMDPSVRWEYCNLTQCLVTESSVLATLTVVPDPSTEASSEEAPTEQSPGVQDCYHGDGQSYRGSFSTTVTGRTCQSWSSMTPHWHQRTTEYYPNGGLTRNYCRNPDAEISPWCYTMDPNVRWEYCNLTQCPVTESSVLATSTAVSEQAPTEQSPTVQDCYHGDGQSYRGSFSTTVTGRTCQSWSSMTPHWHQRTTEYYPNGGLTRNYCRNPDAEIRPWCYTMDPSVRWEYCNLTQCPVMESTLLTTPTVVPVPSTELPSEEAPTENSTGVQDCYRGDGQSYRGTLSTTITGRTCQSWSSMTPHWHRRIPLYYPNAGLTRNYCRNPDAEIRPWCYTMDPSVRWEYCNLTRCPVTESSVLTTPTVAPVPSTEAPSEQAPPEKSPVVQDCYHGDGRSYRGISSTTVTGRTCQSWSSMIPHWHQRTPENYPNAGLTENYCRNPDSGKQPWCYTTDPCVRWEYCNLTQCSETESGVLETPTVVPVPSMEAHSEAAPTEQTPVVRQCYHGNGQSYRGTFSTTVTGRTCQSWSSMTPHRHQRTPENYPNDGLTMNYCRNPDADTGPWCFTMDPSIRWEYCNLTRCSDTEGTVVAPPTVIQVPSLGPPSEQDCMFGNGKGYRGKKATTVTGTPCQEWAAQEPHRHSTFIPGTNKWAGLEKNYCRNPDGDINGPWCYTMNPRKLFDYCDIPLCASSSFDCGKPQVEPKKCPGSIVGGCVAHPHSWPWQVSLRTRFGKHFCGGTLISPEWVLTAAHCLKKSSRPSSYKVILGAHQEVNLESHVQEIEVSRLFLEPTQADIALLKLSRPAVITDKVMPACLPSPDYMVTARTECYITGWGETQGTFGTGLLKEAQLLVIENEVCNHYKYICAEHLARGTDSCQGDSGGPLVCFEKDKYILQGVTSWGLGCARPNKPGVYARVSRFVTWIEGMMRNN

pIC50 [1]: 9.12
SMILES: O=C(O)[C@@H](Cc1cc(F)cc(CN(Cc2cc(F)cc(C[C@H](C(=O)O)[C@H]3CCNC3)c2)Cc2cc(F)cc(C[C@H](C(=O)O)[C@H]3CCNC3)c2)c1)[C@H]1CCNC1 [Compound 1, (2S)-3-(3-{[Bis({3-[(2S)-2-carboxy-2-[(3R)-pyrrolidin-3-yl]ethyl]-5-fluorophenyl}methyl)amino]methyl}-5-fluorophenyl)-2-[(3R)-pyrrolidin-3-yl]propanoic acid]

pIC50 [1]: 8.77
SMILES: O=C(O)[C@@H](Cc1cccc(CN(Cc2cccc(C[C@H](C(=O)O)C3CCNCC3)c2)Cc2cccc(C[C@H](C(=O)O)C3CCNCC3)c2)c1)C1CCNCC1 [Compound 2, (2S)-3-(3-{[Bis({3-[(2S)-2-carboxy-2-(piperidin-4-yl)ethyl]phenyl}methyl)amino]methyl}phenyl)-2-(piperidin-4-yl)propanoic acid]

pIC50 [1]: 8.85
SMILES: O=C(O)C(F)(Cc1cccc(CN(Cc2cccc(CC(F)(C(=O)O)[C@H]3CCNC3)c2)Cc2cccc(CC(F)(C(=O)O)[C@H]3CCNC3)c2)c1)[C@H]1CCNC1 (stereo partly drawn) [Compound 3, 3-[3-({Bis[(3-{2-carboxy-2-fluoro-2-[(3S)-pyrrolidin-3-yl]ethyl}phenyl)methyl]amino}methyl)phenyl]-2-fluoro-2-[(3S)-pyrrolidin-3-yl]propanoic acid]

pIC50 [1]: 9.07
SMILES: O=C(O)[C@@H](Cc1cccc(CN(CCN(Cc2cccc(C[C@H](C(=O)O)[C@H]3CCNC3)c2)Cc2cccc(C[C@H](C(=O)O)[C@H]3CCNC3)c2)Cc2cccc(C[C@H](C(=O)O)[C@H]3CCNC3)c2)c1)[C@H]1CCNC1 [Compound 4, (2S)-3-{3-[({2-[Bis({3-[(2S)-2-carboxy-2-[(3R)-pyrrolidin-3-yl]ethyl]phenyl}methyl)amino]ethyl}({3-[(2S)-2-carboxy-2-[(3R)-pyrrolidin-3-yl]ethyl]phenyl}methyl)amino)methyl]phenyl}-2-[(3R)-pyrrolidin-3-yl]propanoic acid]

pIC50 [1]: 9.11
SMILES: O=C(O)[C@@H](Cc1cccc(CNCCN(Cc2cccc(C[C@H](C(=O)O)[C@H]3CCNC3)c2)Cc2cccc(C[C@H](C(=O)O)[C@H]3CCNC3)c2)c1)[C@H]1CCNC1 [Compound 5, (2S)-3-(3-{[({3-[(2S)-2-Carboxy-2-[(3R)-pyrrolidin-3-yl]ethyl]phenyl}methyl)({2-[({3-[(2S)-2-carboxy-2-[(3R)-pyrrolidin-3-yl]ethyl]phenyl}methyl)amino]ethyl})amino]methyl}phenyl)-2-[(3R)-pyrrolidin-3-yl]propanoic acid]

pIC50 [1]: 9.39 | oral absorption compared with reference 1 ([2]; conclusion in words): better | AUC ([3]; 15 mg/kg): 33100 ng·h/mL | half-life ([3]; 15 mg/kg): 16.6 h | Cmax ([3]; 15 mg/kg): 2370 ng/mL | Unit-dose area under curve AUC/D ([3]; 15 mg/kg): 2200 ng·h/mL per mg/kg | plasma exposure relative to reference 1 ([3]; compound 6 15 mg/kg vs reference 1 50 mg/kg): ~5 times | oral absorption compared with reference 1 ([3]; conclusion in words): better
SMILES: O=C(O)[C@@H](Cc1cccc(CN(CCOc2cccc(C[C@H](C(=O)O)[C@H]3CCNC3)c2)Cc2cccc(C[C@H](C(=O)O)[C@H]3CCNC3)c2)c1)[C@H]1CCNC1 [Compound 6, (2S)-3-(3-{[(2-{3-[(2S)-2-Carboxy-2-[(3R)-pyrrolidin-3-yl]ethyl]phenoxy}ethyl)({3-[(2S)-2-carboxy-2-[(3R)-pyrrolidin-3-yl]ethyl]phenyl}methyl)amino]methyl}phenyl)-2-[(3R)-pyrrolidin-3-yl]propanoic acid tetrahydrochloride]
body weight trend of the mice [4]: remained unchanged or even increased | Mouse body weight, Day 0 [4]: 25.83 g | Mouse body weight, Day 3 [4]: 26.93 g | Mouse body weight, Day 5 [4]: 26.70 g | Mouse body weight, Day 7 [4]: 26.67 g

pIC50 [1]: 9.12
SMILES: O=C(O)[C@@H](Cc1cccc(CN(CCNc2cccc(C[C@H](C(=O)O)[C@H]3CCNC3)c2)Cc2cccc(C[C@H](C(=O)O)[C@H]3CCNC3)c2)c1)[C@H]1CCNC1 [Compound 7, (2S)-3-[3-({[2-({3-[(2S)-2-Carboxy-2-[(3R)-pyrrolidin-3-yl]ethyl]phenyl}amino)ethyl]({3-[(2S)-2-carboxy-2-[(3R)-pyrrolidin-3-yl]ethyl]phenyl}methyl)amino}methyl)phenyl]-2-[(3R)-pyrrolidin-3-yl]propanoic acid pentahydrochloride]

AUC ([2]; male, beagle, dog, plasma, po, read-out: Area under curve AUC): 23000 ng·h/mL | half-life ([2]; male, beagle, dog, plasma, po, read-out: Half-life T1/2 (converted)): 20.7 h | Cmax ([2]; male, beagle, dog, plasma, po, read-out: Maximum plasma concentration Cmax): 1630 ng/mL | AUC ([3]; 50 mg/kg): 22200 ng·h/mL | half-life ([3]; 50 mg/kg): 17.7 h | Cmax ([3]; 50 mg/kg): 2190 ng/mL | Unit-dose area under curve AUC/D ([3]; 50 mg/kg): 443 ng·h/mL per mg/kg
SMILES: O=C(O)[C@@H](Cc1cccc(CN(Cc2cccc(C[C@H](C(=O)O)[C@H]3CCNC3)c2)Cc2cccc(C[C@H](C(=O)O)[C@H]3CCNC3)c2)c1)[C@H]1CCNC1 [Reference 1, reference compound]
body weight trend of the mice [4]: significant downward trend | Mouse body weight, Day 0 [4]: 25.87 g | Mouse body weight, Day 3 [4]: 25.70 g | Mouse body weight, Day 5 [4]: 25.10 g | Mouse body weight, Day 7 [4]: 24.53 g
